{"source": "patent US12409174B2", "about": "“Combination of zibotentan and dapagliflozin for the treatment of endothelin related diseases” (priority 2020, dated 2025)", "key": {"[1]": {"tested_on": "male Wistar rats fed a 4% salt diet", "assay": "Effect of zibotentan and dapagliflozin on kidney and heart weight, Experiment 2", "assay_type": "in vivo", "settings": "Exp 2", "protocol": "(§1) In the second experiment (Experiment 2), the effect of zibotentan and dapagliflozin (alone or in combination) on Hct concentration and Hb was determined. Seventy-two animals were randomized on BW and Hct concentration, 2 to 3 days prior to administration of study drugs into the following groups; 1) Vehicle, 2) Zibotentan (30 mg/kg), 3) Zibotentan (100 mg/kg), 4) Dapagliflozin (3 mg/kg), 5) Zibotentan (30 mg/kg)+Dapagliflozin (3 mg/kg) and 6) Zibotentan (100 mg/kg)+Dapagliflozin (3 mg/kg). For practical reasons, the study was conducted in two consecutive slots with 36 animals (6/group) in each slot. Compounds were administered p.o. QD for seven days. Blood samples for bioanalysis were collected at 4 and 24 hr after the first dose and 24 hr after the final dose for Hct concentration and Hb analysis on day three and seven as described for exp.1. Twenty-four hour urine was collected between the third and fourth dose. 24 hr food and water intake was measured between day 2-3 and between day 6-7. With two animals per cage, food intake and water intake per animal in a cage was assessed by dividing the food intake and water intake of a cage by two.\n(§2) The data for each feature measured was checked for a normal distribution and where appropriate a log transformation was applied to data with a non-normal distribution using R. Since the data were grouped by one factor Zibotentin doses or combined therapy, a one-way ANOVA was used to analyse traits measured at a single time point (GraphPad version 8 or R statistics package emmeans) and a linear mixed effects model (nlme package) in R was used to analyse multiple measures data for body weight. The differences between groups were tested using either a Dunnett test (emmeans package in R or GraphPad v8) when comparing treated groups to the vehicle group or a Tukey comparison (emmeans package in R or Graphpad v8.) for specific pairwise comparisons of treated groups. All model assumptions were checked using the model diagnostic plots in R statistics. Results are expressed as the Mean±standard error of the Mean (SEM) for pharmacodynamic parameters and Mean±standard deviation (SD) for compound concentration in blood and urine. Significance was set at p<0.05."}, "[2]": {"tested_on": "male Wistar rats fed a 4% salt diet", "assay": "Effect of zibotentan, dapagliflozin and the combination on Hct, Experiment 2", "assay_type": "in vivo", "set-up": "key to Hct levels, difference in means (estimate): difference in log-transformed Hct means, treated minus vehicle; Hct levels, Difference / Difference in Hct means: unit not given here", "settings": "Exp 2; for Difference in Hct means: all time points; for Hct levels, difference in means (estimate): log scale", "protocol": "as §1\n(§3) For Hct and Hb analysis, 100 μl of blood from rat's tail vein was collected and measured using CG8 cartridges analysed with an iSTAT instrument (Abbott Point of Care Inc, Abbot Park, IL, USA).\nas §2\nThe Hct data were analysed using a linear mixed effects model to estimate the marginal means and standard deviations within the vehicle and treated groups estimated at day 3, day 7 and overall for the entire study for post hoc comparisons. Treatment groups were compared to the vehicle to determine whether there were effects on Hct compared to the vehicle treated control group (Dunnett test), and the zibotentan treated groups were compared to zibotentan plus dapagliflozin groups (using a Tukey test) to determine if the combined therapy mitigated the effect of zibotentan on Hct."}, "[3]": {"assay": "Effect of zibotentan, dapagliflozin and the combination on body weight, Experiment 2", "settings": "Exp 2; for Prevention of BW gain compared to vehicle: administration period 7 days, FIG. 7", "protocol": "as §1, §2\nTo assess the effect of the combined therapy on weight loss, body weight was measured every day and was compared using a linear mixed effects model."}, "[4]": {"assay": "Amount of dapagliflozin and zibotentan excreted in urine, Experiment 2", "settings": "Exp 2, urine collected between days 3 and 4", "protocol": "as §1"}, "[5]": {"settings": "treatment of prostate cancer; development stopped in 2011; cited from earlier work"}, "[6]": {"tested_on": "male Wistar rats on 4% salt diet", "assay": "Effect of zibotentan on Hb, Experiment 1", "assay_type": "in vivo", "settings": "Exp 1", "protocol": "In the first experiment (Experiment 1), the effect of zibotentan on haematocrit (Hct) concentration was determined when zibotentan was administered peroral (p.o) QD for 14 days. […] Animals were weighed daily prior to dosing throughout the experiment. Blood samples (20 μL) for bioanalysis were taken at 4 and 24 hr after the first dose via the tail vein from conscious animals and 24 hr after the last dose via retroorbital route from anesthetized animals. Blood samples were collected via tail vein (100 μL) for Hct concentration and haemoglobin (Hb) measurements, on day 7 and on day 14, 1-2 hr after dosing. Twenty-four hour urine was collected for the measurement of urinary glucose, urine volume and electrolytes between doses nine and ten. Animals were terminated 24 hr after the last dose. On the day of termination, animals were anesthetized using 5% isoflurane, and blood was collected via the retroorbital route (in heparin-coated microvette, Sarsted) and centrifuged at 3,500 rpm at 4° C. for 10 minutes, plasma was collected and stored at −80° C. degrees prior to analysis. Animals were then euthanized by the removal of the heart. Both the heart and the kidneys were extracted and weighed. From the right kidney, a 4 mm thick slice of tissue was collected and fixed in 4% formaldehyde for subsequent histological analysis and a piece of cortical kidney tissue and heart tissue was collected for gene expression analysis.\nas §3\nSignificance was set at p<0.05."}}}
{"smiles": "CCOc1ccc(Cc2cc([C@@H]3O[C@H](CO)[C@@H](O)[C@H](O)[C@H]3O)ccc2Cl)cc1", "note": "[Dapa, (1S)-1,5-anhydro-1-{4-chloro-3-[(4-ethoxyphenyl)methyl]phenyl}-D-glucitol]", "values": [{"measurement": "Heart weight", "setting": "[1]; Dapa 3 mg/kg p.o. QD 7 days", "result": 0.85, "unit": "g"}, {"measurement": "Heart/tibia length", "setting": "[1]; Dapa 3 mg/kg p.o. QD 7 days", "result": 22.08, "unit": "mg/mm"}, {"measurement": "Kidney weight", "setting": "[1]; Dapa 3 mg/kg p.o. QD 7 days", "result": 2.01, "unit": "g"}, {"measurement": "Kidney/tibia length", "setting": "[1]; Dapa 3 mg/kg p.o. QD 7 days", "result": 51.96, "unit": "mg/mm"}, {"measurement": "Difference in Hct means", "setting": "[2]; Dapa 3 mg/kg vs Vehicle", "result": 0.01}, {"measurement": "Hct levels, difference in means (estimate)", "setting": "[2]; day 3, Dapa 3.0 mg/kg vs Vehicle", "result": 0.03}, {"measurement": "Hct levels, Difference", "setting": "[2]; day 7, Dapa 3.0 mg/kg vs Vehicle", "result": 0.01}, {"measurement": "Changes in body weight over the entire study, Difference", "setting": "[3]; Dapa 3 mg/kg vs Vehicle", "result": "−0.03"}, {"measurement": "Prevention of BW gain compared to vehicle", "setting": "[3]", "result": "prevented this BW gain"}, {"measurement": "Amount of dapagliflozin excreted in urine", "setting": "[4]; Dapa 3 mg/kg p.o. QD", "result": 0.198, "unit": "µmol"}]}
{"smiles": "COc1nc(C)cnc1NS(=O)(=O)c1cccnc1-c1ccc(-c2nnco2)cc1", "note": "[Zibo, N-(3-methoxy-5-methylpyrazin-2-yl)-2-[4-(1,3,4-oxadiazol-2-yl)phenyl]pyridine-3-sulfonamide]", "values": [{"measurement": "Heart weight", "setting": "[1]; Zibo 30 mg/kg p.o. QD 7 days", "result": 0.96, "unit": "g"}, {"measurement": "Heart/tibia length", "setting": "[1]; Zibo 30 mg/kg p.o. QD 7 days", "result": 24.75, "unit": "mg/mm"}, {"measurement": "Kidney weight", "setting": "[1]; Zibo 30 mg/kg p.o. QD 7 days", "result": 2.05, "unit": "g"}, {"measurement": "Kidney/tibia length", "setting": "[1]; Zibo 30 mg/kg p.o. QD 7 days", "result": 52.49, "unit": "mg/mm"}, {"measurement": "Heart weight compared to vehicle, with or without normalizing to tibia length", "setting": "[1]; Zibo 30 mg/kg, seven days", "result": "increased"}, {"measurement": "Heart weight", "setting": "[1]; Zibo 100 mg/kg p.o. QD 7 days", "result": 0.93, "unit": "g"}, {"measurement": "Heart/tibia length", "setting": "[1]; Zibo 100 mg/kg p.o. QD 7 days", "result": 23.82, "unit": "mg/mm"}, {"measurement": "Kidney weight", "setting": "[1]; Zibo 100 mg/kg p.o. QD 7 days", "result": 1.90, "unit": "g"}, {"measurement": "Kidney/tibia length", "setting": "[1]; Zibo 100 mg/kg p.o. QD 7 days", "result": 48.20, "unit": "mg/mm"}, {"measurement": "Difference in Hct means", "setting": "[2]; Zibo 30 mg/kg vs Vehicle", "result": "−0.05"}, {"measurement": "Difference in Hct means", "setting": "[2]; Zibo 100 mg/kg vs Vehicle", "result": "−0.06"}, {"measurement": "Hct levels, difference in means (estimate)", "setting": "[2]; day 3, Zibo 30 mg/kg vs Vehicle", "result": "−0.10"}, {"measurement": "Hct levels, difference in means (estimate)", "setting": "[2]; day 3, Zibo 100 mg/kg vs Vehicle", "result": "−0.08"}, {"measurement": "Hct compared to vehicle", "setting": "[2]; day 3, zibotentan 30 and 100 mg/kg with or without dapagliflozin 3 mg/kg", "result": "decreased"}, {"measurement": "Hct levels, Difference", "setting": "[2]; day 7, Zibo 30 mg/kg vs Vehicle", "result": "−0.06"}, {"measurement": "Hct levels, Difference", "setting": "[2]; day 7, Zibo 100 mg/kg vs Vehicle", "result": "−0.08"}, {"measurement": "Hct compared to vehicle", "setting": "[2]; day 7, zibotentan 30 and 100 mg/kg alone", "result": "decreased"}, {"measurement": "Effect on Hct concentration", "setting": "[2]; zibotentan 100 mg/kg alone, 7 days, one way ANOVA, Tukey", "result": "−4.00±0.87"}, {"measurement": "Hct concentration", "setting": "[2]; zibotentan 30 or 100 mg/kg, 7 days administration", "result": "significantly decreased"}, {"measurement": "Efficacy in Phase 3", "setting": "[5]", "result": "insufficient efficacy"}, {"measurement": "Day 7 Hb", "setting": "[6]; Zibo 30 mg/kg p.o. QD", "result": 146.4, "unit": "g/L"}, {"measurement": "Day 14 Hb", "setting": "[6]; Zibo 30 mg/kg p.o. QD", "result": 156.8, "unit": "g/L"}, {"measurement": "Day 7 Hb", "setting": "[6]; Zibo 100 mg/kg p.o. QD", "result": 141.5, "unit": "g/L"}, {"measurement": "Day 14 Hb", "setting": "[6]; Zibo 100 mg/kg p.o. QD", "result": 148.5, "unit": "g/L"}, {"measurement": "Day 7 Hb", "setting": "[6]; Zibo 300 mg/kg p.o. QD", "result": 143.2, "unit": "g/L"}, {"measurement": "Day 14 Hb", "setting": "[6]; Zibo 300 mg/kg p.o. QD", "result": 150.3, "unit": "g/L"}, {"measurement": "Hb compared to vehicle", "setting": "[6]; zibotentan 30, 100 and 300 mg/kg, day 7", "result": "significant decrease"}, {"measurement": "Hb compared to vehicle", "setting": "[6]; zibotentan 100 and 300 mg/kg, day 14", "result": "significant decrease"}, {"measurement": "Changes in body weight over the entire study, Difference", "setting": "[3]; Zibo 30 mg/kg vs Vehicle", "result": 0.01}, {"measurement": "Changes in body weight over the entire study, Difference", "setting": "[3]; Zibo 100 mg/kg vs Vehicle", "result": 0.01}, {"measurement": "Prevention of BW gain compared to vehicle", "setting": "[3]", "result": "did not"}, {"measurement": "Amount of zibotentan excreted in urine", "setting": "[4]; Zibo 30 mg/kg p.o. QD", "result": 2.17, "unit": "µmol"}, {"measurement": "Amount of zibotentan excreted in urine", "setting": "[4]; Zibo 100 mg/kg p.o. QD", "result": 3.21, "unit": "µmol"}]}
